{"source": "patent US20240299358A1", "about": "“COMPOSITIONS AND METHODS FOR DIAGNOSIS AND TREATMENT OF AUTOIMMUNE DISEASES” (DUKE UNIVERSITY, priority 2021, published 2024)", "key": {"[1]": {"test_system": "collagen induced arthritic (CIA) mouse model", "experiment": "Therapeutic efficacy in CIA mouse model (clinical score and joint histology)", "type": "in vivo", "details": "30 mg/kg QD", "protocol": "FIGS. 9A-9E illustrate therapeutic potential of eHsp90 targeted therapies for the treatment of auto immune diseases. […] FIG. 9D are representative photomicrographs of forepaw, knee and ankle from a disease control (Naïve), diseased vehicle treated and HS-131 treated animals. “W” identifies wrist, arrows identifies representative affected joints, and “S” identifies inflammation. […] Experiment was performed once with 12 biological replicates per group.\nCIA Disease: Collagen was prepared at 4 mg/ml in 0.01 N acetic acid. Equal volumes of 4 mg/ml collagen and 5 mg/ml Freund's complete adjuvant were emulsified by hand mixing with syringes for approximately 5 min, at which point a bead of this material holds its form when placed in water. On study days 0 and 21, animals were anesthetized with isoflurane and given intradermal injections of a total of 400 μg of type II collagen in Freund's complete adjuvant at the base of the tail.\nCIA Experimental Design: Mice were randomized into treatment groups by body weight on study day 18. Animals were treated from day 21-36 of the study with either 20 μL of HS-131 (30 mg/kg) PO, QD or vehicle (DMSO) PO, QD. On study day 36, the mice were euthanized for necropsy. Clinical scores were given for each of the paws (right front, left front, right rear, left rear) on study days 21-36. 0=normal, 1=one hind or fore paw joints affected or minimal diffuse erythema and swelling, 2=two hind or fore paw joints affected or moderate diffuse erythema and swelling, 3=three hind or fore paw joints affected or moderate diffuse erythema and swelling, 4=four hind or fore paw joints affected or marked diffuse erythema and swelling, 5=entire paw affected, severe diffuse erythema and severe swelling, unable to flex digits. Experimenter was blinded from the treatment group during clinical evaluation and scoring.\nImmunohistological Staining: After 24-48 hours in fixative and 4-5 days in 5% formic acid for decalcification, tissues were trimmed, and processed for paraffin embedding. Paws were embedded in paraffin in the frontal plane and the knees were embedded with the patella facing down. Ankles, if left attached to the hind paw, were also embedded in the frontal plane but may be detached and sectioned in the sagittal plane for special purposes. Sections were cut and stained with toluidine blue.\n0=Normal. 0.5=Very minimal, affects only 1 joint or minimal multifocal periarticular infiltration of inflammatory cells. 1=Minimal infiltration of inflammatory cells in synovium and periarticular tissue of affected joints. 2=Mild infiltration of inflammatory cells. When referring to paws, generally restricted to affected joints (1-3 affected). 3=Moderate infiltration with moderate edema. When referring to paws, restricted to affected joints, generally 3-4 joints and the wrist or ankle. 4=Marked infiltration affecting most areas with marked edema, 1 or 2 unaffected joints may be present. 5=Severe diffuse infiltration with severe edema affecting all joints (to some extent) and periarticular tissues.\n0=Normal. 0.5=Very minimal, affects only one area of the synovium or minimal multifocal periarticular infiltration of inflammatory cells. 1=Minimal infiltration of inflammatory cells in synovium and periarticular tissue of affected synovial areas. 2=Mild diffuse infiltration of inflammatory cells. 3=Moderate diffuse infiltration of inflammatory cells. 4=Marked diffuse infiltration of inflammatory cells. 5=Severe diffuse infiltration of inflammatory cells.\n0=Normal. 0.5=Very minimal=Affects marginal zones only of one to several areas (knees) or joints (paws). 1=Minimal=Generally minimal to mild loss of toluidine blue staining (proteoglycan) with no obvious chondrocyte loss or collagen disruption in affected joints/areas. 2=Mild=Generally mild loss of toluidine blue staining (proteoglycan) with focal areas of chondrocyte loss and/or collagen disruption in some affected joints/areas. […]"}, "eHsp90": {"test_system": "eHsp90", "experiment": "Flow cytometry uptake of fluor-tethered Hsp90 inhibitors by T cells from human PBMCs", "type": "cell-based", "details": "anti-CD3/28 stimulated human PBMCs, following activation (FIG. 3A)", "protocol": "T-cell activation: PBMC aliquots (ZenBio SER-PBMC-F) were washed in RPMI-1640 with 10% FBS and PSG and then rested overnight in a T-75 flask. The suspended cells were then transferred to a fresh flask and activated in fresh RPMI-1640/10% FBS/PSG by 3:20,000 anti-CD3 (BioLegend 317303), 3:20,000 anti-CD28 (BioLegend 302913), and 1:10,000 (30 IU/mL) human IL-2 (CST 8907SC) and incubated for up to 72 hours. In the experiments with longer activation, samples were diluted 1:3 into fresh media containing hIL-2 at 72 hours post initial stimulation with CD3/CD28 antibodies.\nFlow Cytometry: The activated/rested cells were plated into a 96-well round bottom plate and pelleted at low speed. Cells were resuspended in chilled media containing titrated HS-131 or HS-198 (in 1% DMSO) and stained for 30 minutes at RT. Fluorochrome tagged inhibitors and media were washed away with a PBS wash, followed by a PBS wash containing 3% NMS. Surface antibody stains were performed in 3% NMS/PBS for 30 minutes followed by PBS washes (2x). Samples were analyzed on BD FACSCanto II flow cytometer. Permeabilized samples were prepared as previously described followed by fixation in 4% Formaldehyde/PBS overnight at 4° C. Sample analysis was performed with Flowing Software and FlowJo.\nA hallmark of T cell function is to proliferate rapidly in response to antigen presentation along with appropriate cytokine and costimulatory signaling. This leads to the induction of the chaperone machinery which is essential in facilitating this process. In some respects, antigen induced T cell proliferation may be analogous to oncogene driven metastasis. Therefore, to investigate whether proliferating T cells similarly express eHsp90 during T cell activation, their ability to absorb fluor-tethered Hsp90 inhibitors following an anti-CD3/CD28 challenge was examined (see. FIGS. 2A-2E). The structures of two types of fluor-tethered Hsp90 inhibitors (HS-131 and […]) that were used in the present studies are shown in FIG. 2A. […]"}}, "data": [{"smiles": "Cc1nn(-c2ccc(C(N)=O)c(NCCCOCCOCCOCCOCCOCCCNCc3ccc(C(=C\\C=C4\\N(CCCCS(=O)(=O)[O-])c5ccccc5C4(C)C)/C=C/C4=[N+](CCCCS(=O)(=O)O)c5ccccc5C4(C)C)cc3)c2)c2c1C(=O)CC(C)(C)C2", "note": "[HS-131]", "values": [{"measurement": "pathogenesis of disease development (animals developing disease)", "setting": "[1]; day 21-36, N=12/group (FIG. 9A)", "result": "comparable to the vehicle control"}, {"measurement": "reduction of bone resorption, histological scoring", "setting": "[1]; day 36, vs vehicle (FIG. 9E)", "result": 35, "unit": "%"}, {"measurement": "reduction of cartilage damage, histological scoring", "setting": "[1]; day 36, vs vehicle (FIG. 9E)", "result": 36, "unit": "%"}, {"measurement": "reduction of inflammation, histological scoring", "setting": "[1]; day 36, vs vehicle (FIG. 9E)", "result": 27, "unit": "%"}, {"measurement": "reduction of pannus, histological scoring", "setting": "[1]; day 36, vs vehicle (FIG. 9E)", "result": 35, "unit": "%"}, {"measurement": "reduction of periosteal bone, histological scoring", "setting": "[1]; day 36, vs vehicle (FIG. 9E)", "result": 29, "unit": "%"}, {"measurement": "mean clinical arthritic score", "setting": "[1]; throughout study period, vs vehicle, p<.001 (FIG. 9B)", "result": "significantly reduced"}, {"measurement": "decrease in clinical score, area under the curve", "setting": "[1]; vs vehicle (FIG. 9C)", "result": "~23", "unit": "%"}, {"measurement": "eHsp90 expression upregulation as determined by HS-131 binding", "setting": "eHsp90", "result": "20-25 fold"}]}]}
